Measurements reported in patent US10906904B2, “ADO-resistant cysteamine analogs and uses thereof” (HORIZON ORPHAN LLC, priority 2015, dated 2021).
Read-outs that look alike come from different tables or passages of the source.

Tests used:
Cystine reactivity assay [1] = assay: Cystine reactivity assay; parameters: Cystine Reactivity: unit not given here; settings: for Cystine Reactivity: Tables 1-3; for Cystine Reactivity Assay (30° C.) (%) Mean Value: percentage of 3 mM cysteamine
Description: Cystine reactivity was assessed by incubating 3 mM test compound with 100 nM BODIPY® FL L-Cystine (Life Tech.) at 30° C., pH 7.4 in phosphate buffer. […] Compound cystine reactivity was expressed as a percentage of that of 3 mM cysteamine.
Under resting conditions, the inherent fluorescence of BODIPY® FL L-cystine was very low due to the spatial proximity of the two BODIPY molecules causing quenching. Under chemical reaction (disruption of the S—S bond), the spatial distance was increased, the quenching lost, and measured fluorescence increased. Time (minutes) vs. fluorescence (relative fluorescence units—RFU) was plotted and linear regression analysis was performed to generate a slope value corresponding to the reaction rate in RFU/min and an R2 value.

human recombinant ADO = molecular target: T1, human recombinant ADO (Homo sapiens, UniProt Q96SZ5); format: in vitro ADME
T1 sequence (Q96SZ5 1-270): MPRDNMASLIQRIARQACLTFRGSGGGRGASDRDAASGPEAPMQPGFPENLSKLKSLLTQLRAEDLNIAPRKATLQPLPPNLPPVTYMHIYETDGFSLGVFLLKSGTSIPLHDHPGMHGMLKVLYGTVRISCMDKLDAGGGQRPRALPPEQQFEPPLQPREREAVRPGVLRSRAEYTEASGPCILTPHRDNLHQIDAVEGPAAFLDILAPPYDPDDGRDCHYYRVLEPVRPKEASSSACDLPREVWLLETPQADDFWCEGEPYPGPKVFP
Description: The rate of ADO metabolism was determined by incubating 15 mM test compound with 60 μg/ml human recombinant ADO and 20 nM MitoXpress® O2-sensitive fluorescent probe (Luxcel) at 37° C. in assay buffer/salt in a sealed assay chamber. The initial rate of fluorescence (excitation λ380 nm and emission λ650 nm) increase was used to measure ADO-dependent oxygen depletion activity. The ability of ADO to metabolize compounds and concomitantly consume oxygen was expressed relative to that of 15 mM cysteamine.

[2] = test system: cystinotic human fibroblasts; assay: Cystine depletion assay; format: cell-based; settings: for Cystine depletion: compound at 50 μM or 100 μM, Tables 1-3; for Cystine Depletion (%) / Emax: relative to cystine depletion by cysteamine (100%) at a similar concentration; for Emax: Homo sapiens, Fibroblast, 1 h
Description: The ability of test compounds to deplete cystine from cystinotic human fibroblasts (Coriell) was determined by incubating compounds with cells for 60 min at 37° C., 95% (v/v) air/5% (v/v) CO2 in Minimal Essential Media Eagle. Treated cell samples were subsequently harvested, then homogenized to ensure plasma and lysosomal membrane disruption. Protein was removed by acid precipitation and cystine in the supernatant measured using LC-MS/MS and HILIC chromatography. Protein levels were determined and cystine levels reported as nM per mg/ml protein. Cystine levels after test compound treatment were expressed as a percentage of that of untreated control cells.
Compounds were assayed at a concentration of 50 μM or 100 μM according to the general methods described above.
Cystine depletion levels for the compounds are expressed in Table 4 as a percent relative to the cystine depletion achieved by cysteamine (c.f. cysteamine 100%) at a similar concentration.
Cystine depletion levels for each of the compounds in Table 5 are expressed as a percent relative to the cystine depletion achieved by cysteamine (c.f. cysteamine 100%) at a similar concentration.

[3] = Rodent pharmacokinetic assay (rat); format: in vivo; settings: 2 and 10 mg free base equivalents per kg, intravenous and oral gavage
Description: (§1) Pharmacokinetic parameters of a test compound in a rodent species (mouse and/or rat) were determined by administering a test compound at 2 and 10 mg free base equivalents per kg via the intravenous and oral gavage route to groups of three animals per route.
(§2) Blood samples were taken at various times after administration, plasma prepared, and submitted to analysis for parent drug using a qualified LC-MS-MS assay. Pharmacokinetics parameters derived from the plasma analytical data were determined using non-compartmental analysis.

[4] = test system: cryopreserved rat hepatocytes; assay: Rat hepatocyte stability assay
Description: Rat hepatocytes were used to model in vivo hepatic clearance of the compounds by the ADO enzyme. Briefly, a Hepatocyte Stability Assay was carried out using cryopreserved rat hepatocytes.

[5] = Dimethyl sulfide (DMS) detection in rat whole blood following oral compound administration; format: in vivo
Description: Male Sprague Dawley (SD) rats (200-250 g) were housed in cages under a 12 hour light/dark cycle with free access to food and water. Temperature and humidity were controlled according to UK Home Office regulations. For oral (po) administration, test compounds were formulated in water at a concentration of 30 mg/mL, to provide a dose of 150 mg/kg when administered orally in a 5 mL/kg dosing volume. Following compound or water (vehicle) administration to rats (n=15 per compound), terminal blood samples (>5 mL) were taken by cardiac puncture under CO2 at defined time-points post oral dosing (pre-dose, 0.25 hour, 0.5 hour, 1 hour and 2 hour). Blood was placed in sealed heparinized Eppendorf tubes on wet ice and stored at 4° C. prior to analyzing DMS levels by gas chromatography (GC).
For each sample of rat blood, 1 mL was added to an evacuated 20 mL GC-Headspace vial containing tetrahydrofuran (THF) internal standard. Headspace vials were sealed with a crimp cap and septum (to prevent the vaporization of volatile sulfur compounds into the open air) and thoroughly vortex mixed. All samples were processed using gas chromatography to measure DMS levels. In short, sulfur containing compounds were thermally liberated into the gas carrier stream and injected (1 μL) into the gas chromatography column (30 m×0.32 mm DB-624 1.8 μm). Under these conditions, the retention time for dimethyl sulfide (DMS) and THF internal standard were approximately 1.83 minutes and 3.82 minutes respectively.
For each analyzed blood sample, the ratio of DMS peak area to THF peak area was calculated. For the DMS calibration curve and assay linearity checks, this ratio was graphically plotted against the concentration of reference DMS standards (blank, 60 nM, 180 nM, 360 nM, 600 nM, 1200 nM, 1800 nM and 3000 nM). The concentration of DMS in each blood sample was calculated from the equation produced by this plot by linear regression analysis. […].

St-HdhQ^111/111 cells = assay: Glutamate-induced neuronal excitotoxicity assay; format: cell-based; settings: for viability at 10 µM / viability at 100 µM: STHdhQ111; for viability at 10 µM: read-out: HdhQ^111/111 cell % survival (mean ± STD) Test Conc. 10 μM; for viability at 100 µM: read-out: HdhQ^111/111 cell % survival (mean ± STD) Test Conc. 100 μM
Description: The ability of test compounds to inhibit glutamate-induced excitotoxicity (neuroprotection) in St-HdhQ^111/111 cells was determined by incubating compounds with cells for 60 min at 33° C., 95% (v:v) air/5% (v:v) CO2 in Dulbecco's Modified Eagle Media. Following this, excitotoxicity was induced by the addition of 6 mM L-glutamate for 24 hours. Cell viability was assessed by measuring ATP levels using a luminescent-based CellTitre Glo assay (Promega). Compound neuroprotection (% cell survival) was expressed as a % of the effect recorded with 100 μM cysteamine (denoted as 100% cell survival).

Cystine reactivity assay [6] = settings: Table 4
[7] = Rodent pharmacokinetic assay (mouse); settings: 2 and 10 mg free base equivalents per kg, intravenous and oral gavage
Description: as §1, §2

[8] = 10 μM, 6 mM L-glutamate 24 hours, % of effect of 100 μM cysteamine
[9] = 100 μM, 6 mM L-glutamate 24 hours, % of effect of 100 μM cysteamine
[10] = Table 4, read-out: Cystine Depletion (%)

SMILES: CC(N)CS (stereo not drawn) [Compound 3c]
- Cystine Reactivity (Cystine reactivity assay [1]): 7733
- reactivity with cystine compared to cysteamine (in words) (Cystine reactivity assay [1]; text summary of Tables 1-3): increased reactivity with cystine compared to cysteamine
- metabolism by ADO compared to cysteamine (in words) (human recombinant ADO): significantly reduced metabolism by ADO compared to cysteamine
- cystine depletion levels (in words) ([2]; compared to cysteamine): similar
- Cystine depletion [2]: 97%
- Rat PK Bioavailability [3]: 23%
- Rat PK-Half life [3]: 48 min
- Rat Hepatocytes CLint [4]: 29500 µL/min/mg

SMILES: NCCS [Cysteamine]
- Cystine Reactivity Assay (30° C.) (%) Mean Value (Cystine reactivity assay [1]; Table 4): >90%
- Cystine Reactivity (Cystine reactivity assay [1]): 6543
- ADO Metabolism Assay (%) Mean Value (human recombinant ADO; Table 4, relative to 15 mM cysteamine): >75%
- ADO metabolism (human recombinant ADO; relative to 15 mM cysteamine, Tables 1-3): 111%
- Cystine Depletion (%) ([2]; Table 4): 100%
- Cystine depletion [2]: 101%
- Cystine depletion ( ) = disulfide efficacy ([2]; disulfide of the compound, 50 μM or 100 μM): (106%)
- Rat PK Bioavailability [3]: 62%
- Rat PK-Half life [3]: 30 min
- Mean DMS levels (nM) ± STD, Time 0.5 hr ([5]; rat whole blood, 150 mg/kg po, 0.5 hr): 1097 ± 418 nM
- Mean DMS levels (nM) ± STD, Time 1 hr ([5]; rat whole blood, 150 mg/kg po, 1 hr): 1162 ± 373 nM
- Mean DMS levels (nM) ± STD, Time 2 hr ([5]; rat whole blood, 150 mg/kg po, 2 hr): 1437 ± 334 nM
- Mean DMS levels (nM) ± STD, Time […] ([5]; rat whole blood, 150 mg/kg po, […]): 641 ± 324 nM
- HdhQ^111/111 cell % survival (mean ± STD) Test Conc. 10 μM (St-HdhQ^111/111 cells; [8]): 20 ± 6%
- HdhQ^111/111 cell % survival (mean ± STD) Test Conc. 100 μM (St-HdhQ^111/111 cells; [9]): 105 ± 13%
- inhibition of glutamate-induced excitotoxicity / cell survival (in words) (St-HdhQ^111/111 cells; St-HdhQ^111/111 cells): capable of inhibiting glutamate-induced excitotoxicity
- Cystine Reactivity Assay (RT) (RFU) Mean Value (Cystine reactivity assay [6]): 4000-9000 RFU
- Rat Hepatocytes CLint [4]: 33700 µL/min/mg
- Mouse PK Bioavailability [7]: 33%
- Mouse PK-Half life [7]: 144 min

SMILES: CN1CCC(S)CC1 [Compound 17521]
- Cystine Reactivity Assay (30° C.) (%) Mean Value (Cystine reactivity assay [1]; Table 4): 50-90%
- ADO Metabolism Assay (%) Mean Value (human recombinant ADO; human, 15 mM): <25%
- Emax [2, 10]: 79%
- Cystine Reactivity Assay (RT) (RFU) Mean Value (Cystine reactivity assay [6]): 4000-9000 RFU

SMILES: SCCc1ccncc1 [Compound 17522]
- ADO Metabolism Assay (%) Mean Value (human recombinant ADO; human, 15 mM): <25%
- Emax [2, 10]: 6%
- Cystine Reactivity Assay (RT) (RFU) Mean Value (Cystine reactivity assay [6]): <4000 RFU

SMILES: NCCCS [Compound 17329]
- Cystine Depletion (%) ([2]; Table 4): 36%
- Cystine Reactivity Assay (RT) (RFU) Mean Value (Cystine reactivity assay [6]): <4000 RFU

SMILES: CC(S)CN (stereo not drawn) [Compound 17330]
- Cystine Reactivity Assay (RT) (RFU) Mean Value (Cystine reactivity assay [6]): 4000-9000 RFU

SMILES: SC[C@@H]1CCCN1 (stereo in doubt) [Compound 42210]
- Cystine Reactivity Assay (30° C.) (%) Mean Value (Cystine reactivity assay [1]; Table 4): >90%
- Cystine Reactivity Assay (30° C.) (%) Mean Value (Cystine reactivity assay [1]; Table 5): >90%
- ADO Metabolism Assay (%) Mean Value (human recombinant ADO; human, 15 mM): <25%
- Emax [2, 10]: 87%
- Emax ([2]; Table 5, read-out: Cystine Depletion (%) Mean Value): 89%
- Mean DMS levels (nM) ± STD, Time 1 hr ([5]; male, Sprague Dawley, rat, in vivo, po, 150 mg/kg, 1 h): <60 nM
- Mean DMS levels (nM) ± STD, Time 2 hr ([5]; male, Sprague Dawley, rat, in vivo, po, 150 mg/kg, 2 h): <60 nM
- viability at 10 µM (St-HdhQ^111/111 cells; [8]): 7 ± 6%
- viability at 100 µM (St-HdhQ^111/111 cells; [9]): 105 ± 8%

SMILES: CC(=O)NCCS [Compound 17287]
- ADO Metabolism Assay (%) Mean Value (human recombinant ADO; human, 15 mM): <25%
- Cystine Reactivity Assay (RT) (RFU) Mean Value (Cystine reactivity assay [6]): <4000 RFU

SMILES: S[C@@H]1CCCNC1 [Compound 42248]
- Cystine Reactivity Assay (30° C.) (%) Mean Value (Cystine reactivity assay [1]; Table 4): >90%
- ADO Metabolism Assay (%) Mean Value (human recombinant ADO; human, 15 mM): <25%
- Emax [2, 10]: 103%
- viability at 10 µM (St-HdhQ^111/111 cells; [8]): 2 ± 7%
- viability at 100 µM (St-HdhQ^111/111 cells; [9]): 81 ± 6%
